The source of these data is patent US7981890B2, “Phthalazinone derivatives” (AstraZeneca AB, priority 2007, dated 2011).

Converted amounts (≈) assume the structure as drawn.

One data set has as its system HeLa cells. As to the kind of experiment: Potentiation Factor (PF50), MMS growth inhibition, SRB assay. It is filed as cell-based. The settings on record: with MMS, ratio of IC50 control / IC50 with PARP inhibitor; for mean PF50 at 30 nM: compound at 30 nM; for mean PF50 at 200 nM: compound at 200 nM. The procedure: The Potentiation Factor (PF50) for compounds is calculated as a ratio of the IC50 of control cell growth divided by the IC50 of cell growth+PARP inhibitor. Growth inhibition curves for both control and compound treated cells are in the presence of the alkylating agent methyl methanesulfonate (MMS). […] The concentrations of MMS were over a range from 0 to 10 μg/ml.
Cell growth was assessed using the sulforhodamine B (SRB) assay (Skehan, P., et al., (1990) New calorimetric cytotoxicity assay for anticancer-drug screening. J. Natl. Cancer Inst. 82, 1107-1112). 2,000 HeLa cells were seeded into each well of a flat-bottomed 96-well microtiter plate in a volume of 100 μl and incubated for 6 hours at 37° C. […] Cells were allowed to grow for a further 1 hour before the addition of MMS at a range of concentrations (typically 0, 1, 2, 3, 5, 7 and 10 μg/ml) to either untreated cells or PARP inhibitor treated cells. Cells treated with PARP inhibitor alone were used to assess the growth inhibition by the PARP inhibitor.
Cells were left for a further 16 hours before replacing the media and allowing the cells to grow for a further 72 hours at 37° C. The media was then removed and the cells fixed with 100 μl of ice cold 10% (w/v) trichloroacetic acid. The plates were incubated at 4° C. for 20 minutes and then washed four times with water. Each well of cells was then stained with 100 μl of 0.4% (w/v) SRB in 1% acetic acid for 20 minutes before washing four times with 1% acetic acid. Plates were then dried for 2 hours at room temperature. The dye from the stained cells was solubilized by the addition of 100 μl of 10 mM Tris Base into each well. Plates were gently shaken and left at room temperature for 30 minutes before measuring the optical density at 564 nm on a Microquant microtiter plate reader.
On the technique in general: In SRB staining, fixed cells bind dye roughly in proportion to their protein.

The next data set is described as follows: Solubility assay. It is filed as physicochemical. The settings on record: thermodynamic from solid; water; 20 hours at room temperature. As for the experimental part:
A typical assay that may be used to assess the solubility of the compounds of the present invention is as follows. The solubility of the compound is assessed in water and phosphate-buffered saline (pbs) at pH 7.4. The samples are all allowed to equilibrate in the solvent (with shaking) for 20 hours at room temperature. After that period, the samples will be visually examined to determine the presence/absence of un-dissolved solid. The samples will be centrifuged or filtered as necessary to remove insoluble material, and the solution analysed to determine solubility of the DS, diluting both aqueous and DMSO samples to a similar concentration with DMSO. The area of the peak obtained by HPLC (using the diode array detector) from the sample will be compared to the area of the peak from the DMSO solution (diluted to the same concentration as the sample) and quantified taking into account the weight of sample taken for initial dissolution. The assumption is made that the sample will be completely soluble in DMSO at the levels used for testing.
Comparing the ratio of the peak areas, and knowing the concentration of the original samples, the solubility may be calculated.
About 1 mg of the sample is weighed accurately into a 4-ml glass vial and exactly 1.0 ml of water, aqueous buffer or DMSO, is added to it by pipette. Each vial is ultrasonicated for up to 2 minutes to assist solublisation of the solid. The samples are retained at room temperature for 20 hours, shaking on an orbital shaker. The vials are examined after this period to determine the presence/absence of un-dissolved solid. The samples should be centrifuged, or filtered through a 0.45 μm filter, to remove insoluble material if necessary, and the filtrate analysed to determine concentration of the compound in solution, after diluting all samples as appropriate with DMSO. 20 μl is injected onto the HPLC using the method shown below, injecting all samples in duplicate. The maximum solubility that can be determined using this method is nominally 1.0 mg/ml, the weight taken divided by the volume of solvent used. […]

Data set [1] has as its system BRCA2 deficient (VC8) cells. As to the kind of experiment: VC8 assay, growth inhibition (SRB). Type of data set: cell-based, hamster. The conditions noted are these: V-C8. The procedure: (§1) In order to assess the growth inhibitory action of compounds on BRCA2 deficient (VC8−hamster line) and BRAC2 complemented (VC8+BAC) cells the following assay was used to determine GI50 values.
500 VC8 cells or 200 VC8+BAC cells were seeded into each well of a flat-bottomed 96-well microtiter plate in a volume of 90 μl and incubated for 4-6 hours at 37° C. All compounds were diluted in media (Dulbecco's Modified Eagle's Medium (DMEM), 10% Fetal Bovine Serum, Penicillin/Sretptomycin/Glutamine) and added to the cells at final concentrations of between 0 and 300 nM.
Cells were left for a further 48 hours before replacing the media with fresh media (no compound) and allowing the cells to grow for a total of 120 hours at 37° C. The medium was then removed and the cells fixed with 50 μl of ice cold 10% (w/v) tricholoracetic acid. The plates were incubated at 4° C. for 30 minutes and then washed three times with water. Each well of cells was then stained with 50 μl of 0.4% (w/v) sulforhodamine B (SRB) in 1% acetic acid for 15 minutes before washing three times with 1% acetic acid. Plates were then dried for 2 hours at room temperature. The dye from the stained cells was solubilised by the addition of 100 μl of 10 mM Tris Base into each well. Plates were then shaken and the optical density at 564 nm was measured on a Microquant microtiter plate reader. […]

The subject of data set [2] is BRAC2 complemented (VC8+BAC) cells. As to the kind of experiment: VC8 assay, growth inhibition (SRB), complemented cells. The settings on record: BRCA2 complemented VC8+BAC cells. It is filed as cell-based, hamster. As for the experimental part:
as §1
500 VC8 cells or 200 VC8+BAC cells were seeded into each well of a flat-bottomed 96-well microtiter plate in a volume of 90 μl and incubated for 4-6 hours at 37° C. […]
Cells were left for a further 48 hours before replacing the media with fresh media (no compound) and allowing the cells to grow for a total of 120 hours at 37° C. The medium was then removed and the cells fixed with 50 μl of ice cold 10% (w/v) tricholoracetic acid. The plates were incubated at 4° C. for 30 minutes and then washed three times with water. Each well of cells was then stained with 50 μl of 0.4% (w/v) sulforhodamine B (SRB) in 1% acetic acid for 15 minutes before washing three times with 1% acetic acid. Plates were then dried for 2 hours at room temperature. The dye from the stained cells was solubilised by the addition of 100 μl of 10 mM Tris Base into each well. Plates were then shaken and the optical density at 564 nm was measured on a Microquant microtiter plate reader.
The GI50 is calculated as the μM concentration of compound required to inhibit 50% of cell growth.

Take `C[C@@H]1NC(=O)N(c2cc(Cc3n[nH]c(=O)c4c3CCCC4)ccc2F)C1=O` (single isomer, unassigned) [Compound 13a]: the “mean PF50 at 30 nM” value with HeLa cells amounted to 25.

For `C[C@H]1NC(=O)N(c2cc(Cc3n[nH]c(=O)c4c3CCCC4)ccc2F)C1=O` (single isomer, unassigned) [Compound 13b], the “mean PF50 at 30 nM” value in the data set on HeLa cells stood at 9.

Molecule `CC1NC(=O)N(c2cccc(Cc3n[nH]c(=O)c4c3CCCC4)c2)C1=O` (stereo not shown) [Compound 6, 5-Methyl-3-[3-(4-oxo-3,4,5,6,7,8-hexahydro-phthalazin-1-ylmethyl)-phenyl]-imidazolidine-2,4-dione] yielded a solubility at 20 h in “Solubility assay” of 500 µg/mL (≈ 1420 µM). Moreover, in the data set on HeLa cells, the “mean PF50 at 200 nM” value came out at 20.

`CC1NC(=O)N(c2cc(Cc3n[nH]c(=O)c4c3CCCC4)ccc2F)C1=O` (stereo not shown) [Compound 13, 3-[2-Fluoro-5-(4-oxo-3,4,5,6,7,8-hexahydro-phthalazin-1-ylmethyl)-phenyl]-5-methylimidazolidine-2,4-dione]: in “Solubility assay”, the solubility at 20 h came out at 900 µg/mL (≈ 2430 µM). Also, the “mean PF50 at 200 nM” value in the data set with HeLa cells is 57. In addition, the GI50 was 0.0105 µM in data set [1] and 29 µM in data set [2].

For `CC1(C)NC(=O)N(c2cccc(Cc3n[nH]c(=O)c4c3CCCC4)c2)C1=O` [Compound 15, 5,5-dimethyl-3-[3-[(4-oxo-5,6,7,8-tetrahydro-3H-phthalazin-1-yl)methyl]phenyl]imidazolidine-2,4-dione], the solubility at 20 h in the data set “Solubility assay” amounted to 105 µg/mL (≈ 287 µM). Also, the “mean PF50 at 200 nM” value in the data set with HeLa cells was 2.

For orientation: solubility means the dissolved amount per volume that the medium holds. A lower solubility goes with a poorly soluble substance. As a reminder, the GI50 is the concentration at which growth is held to half of that of the control. Low readings indicate greater sensitivity of the cells, high ones lower sensitivity of the cells.
